Literature values, collected in patent US20070289889A1, “Biomarkers For The Prediction Of Drug-In Duced Diarrhea” (NOVARTIS AG, priority 2003, published 2007).

Details: anticancer drugs targeted to inhibit the cell cycle, literature; cited from earlier work

CCc1c2c(nc3ccc(OC(=O)N4CCC(N5CCCCC5)CC4)cc13)-c1cc3c(c(=O)n1C2)COC(=O)[C@]3(O)CC [CPT-11]
drug-induced diarrhoea: Diarrhoea has been reported
